# Source: US4349562A, “Substituted 2-pyrrolidinones” (Hoffmann-La Roche Inc., priority 1978, dated 1982)
# Like-named read-outs stand apart in the source and are kept apart here.
# How the values were obtained:
# [1] = tested on: untrained rats; experiment: Posthypercapnic "avoidance" acquisition (shuttle box); format: in vivo; conditions: Rattus norvegicus, carbon dioxide 12 seconds, read-out: Minimum active dosage
# Experimental: (§1) The ability of the compounds of formula I to counteract experimentally produced cerebral insufficiency in mammals was determined by means of test procedures which are described hereinafter:
# POSTHYPERCAPNIC "AVOIDANCE" ACQUISITION
# The test apparatus is a "shuttle box" having a 10 cm high hurdle in the middle and an electrifiable grid floor. A loudspeaker is mounted in the soundproof chamber. One group of untrained rats (120-150 g.) is injected with a test preparation and a second group is injected with a control preparation. One or three hours after administration, each group is placed in a pure carbon dioxide environment for 12 seconds. A third group of 10 rats is treated neither with the test preparation nor with carbon dioxide. Three minutes after treatment with carbon dioxide the rats of all three groups must learn an escape response and an avoidance response in the "shuttle box" in the following sequence: 10 seconds silence, 5 seconds noise ("avoidance response"), 15 seconds noise+foot-shock ("escape response"). The sequence is repeated six times. For each of the six experiments the reaction time (time until the rat jumps over the hurdle) of each rat is measured and the statistical significance of the differences between the mean group reaction times is calculated by means of the Mann-Whitney U-test.
# [2] = Acute toxicity in mice; conditions: mouse, in vivo, po
# From the text: The acute toxicities of the compounds of formula I in mice are as follows: […]
# [3] = tested on: squirrel monkeys (Saimiri sciureus); experiment: Inhibition of haloperidol-induced "knock out" in a "continuous avoidance" test sequence; format: in vivo, squirrel monkey (Saimiri sciureus); conditions: in Primates, ip, before haloperidol 1.0 mg/kg p.o., delay in knock-out time, read-out: minimum active dosage
# Experimental: as §1
# INHIBITION OF HALOPERIDOL-INDUCED "KNOCK OUT" IN A "CONTINUOUS AVOIDANCE" TEST SEQUENCE
# Male, untrained squirrel monkeys (Saimiri sciureus), each weighing 0.6 to 1.2 kg, are trained in a two-lever Skinner box in the following "continuous avoidance" sequence: "avoidance-shock", interval 40 seconds; "shock-shock", interval 20 seconds; foot-shock, maximum 5 seconds. Monkeys having a normal baseline performance receive haloperidol 1.0 mg/kg p.o. to determine the "knock-out" time (blocking of "avoidance and escape"). Monkeys having stable "knock-out" times are selected for the evaluation of test preparations as a potential cerebral insufficiency improver. The test preparations can be injected at various times before the treatment with haloperidol.
# A dosage of a test preparation is considered to be active, if the administration before the treatment with haloperidol, produces a significant delay in the "knock-out" time. The test preparation is administered at different times prior to treatment with haloperidol.
# [4] = tested on: untrained male rats; experiment: "Passive avoidance" test with electroshock amnesia; format: in vivo; conditions: Rattus norvegicus, ip, 3 h, i.p., electric shock, retention time after three hours, read-out: minimum active dosage
# Experimental: as §1
# "PASSIVE AVOIDANCE" TEST WITH ELECTROSHOCK AMNESIA
# The test apparatus is a Skinner box having an electrifiable grid floor with a grey quadrangular platform in one corner. Untrained male rats weighing 100-200 g are placed on the platform. When the rats climb down onto the grid floor they receive an electric shock. […] Immediately after acquisition of the passive avoidance response three groups of 20 rats each are formed. One group receives an electric shock between the ears and i.p. injection of the test preparation. The second group receives an electric shock between the ears and an i.p. injection of sodium chloride. The third group receives only an i.p. injection of sodium chloride. After three hours, each rat is placed on the platform once and the retention time, that is, the time the rat remains on the platform (maximum 60 seconds), is measured. The significant activity of the test preparation in comparison to the two control groups is calculated by means of the Rang Test.
Structure (SMILES),"minimal effective dose ([1]; ip, after 1 hour) [mg/kg]","minimal effective dose ([1]; po, after 1 hour) [mg/kg]",LD50 [2] [mg/kg],"minimal effective dose ([1]; ip, after 3 hours) [mg/kg]",minimal effective dose [3] [mg/kg],minimal effective dose [4] [mg/kg]
O=C1CCCN1Cc1ccc(F)cc1 [p-Fluorobenzyl],50,300,1000 to 2000,,,
COc1cccc(CN2CCCC2=O)c1 [m-Methoxybenzyl],,,1250 to 2500,50,,
"COc1ccc(CN2CCCC2=O)cc1 [p-Methoxybenzyl, 1-(p-methoxybenzyl)-2-pyrrolidinone]",10,50,2000 to 4000,,1,50
COc1ccccc1C(=O)N1CCCC1=O [o-Methoxybenzoyl],30,100,5000,,,
